Here are results for two compounds from patent publication US9700637B2, “Reaction-based fluorescent probes for detecting zinc” (Massachusetts Institute of Technology, priority 2013, dated 2017).

In series [1] the test system is HeLa cells. Put plainly: Live cell fluorescence imaging: response to intracellular zinc (ZnPT/TPEN) and stability in cellulo. It is filed as cell-based. The protocol: FIG. 5 depicts live cell imaging of HeLa cells that were bathed in a 1 μM solution of DA-ZP1-TPP in dye and serum free DMEM media for 30 min at 37° C. and 5% CO2. […] There was minimal fluorescent signal from DA-ZP1-TPP, consistent with the quenched fluorescent form of the sensor (top, right).
FIG. 24 depicts fluorescence images of live HeLa cells. HeLa cells were pretreated with a 1 μM solution of DA-ZP1-TPP in dye- and serum-free medium for 30 min (37° C., 5% CO2). […] The signal from MitoTracker Red (c) correlates well with the signal from the zinc-bound sensor (d). Pearson's r=0.64±0.1 (n=18). […]
We used HeLa cells as a model system to evaluate the ability of DA-ZP1-TPP to target mitochondria and respond to changes in intracellular zinc levels. Live HeLa cells were pretreated with medium containing 1 μM DA-ZP1-TPP and 250 nM MitoTracker Red for 30 min (37° C., 5% CO2) prior to imaging (FIG. 24). […] Over a two-hour period, the fluorescence intensity from the sensor remained constant, implying that the acetylated form is stable against intracellular esterases (FIG. 24e). […] Addition of 100 μM TPEN attenuated the fluorescence signal by ˜2.4-fold (FIG. 24f). […] We anticipate that this strategy will be applicable to related families of fluorophores. […]

Series [2] in a line: Zinc-induced fluorescence response in cuvette (turn-on, quantum yield). In kind it is physicochemical. The settings on record: for zinc-induced fluorescence response (turn-on): excess ZnCl2. The protocol:
FIG. 2 depicts the normalized fluorescent spectra of DA-ZP1-TPP (also referred to as Ac2-ZP1-TPP) and ZP1-TPP in the absence (dashed line) and presence (solid line) of excess ZnCl2. Inset: The y-axis is magnified to aid in the visualization of the ˜7-fold “turn-on” of ZP1-TPP.
FIG. 20 depicts Zn(II)-dependent fluorescence signal enhancement of DA-ZP1-TPP. (a) Normalized fluorescence spectra of a 1 μM solution of DA-ZP1-TPP, in 50 mM PIPES buffer (pH 7) with 1 mM EDTA, 2 mM CaCl2, and 100 mM KCl, upon increasing concentrations of free zinc ions. (b) Zinc binding isotherm for the data in (a), normalized to the fluorescence signal under zinc saturating conditions (λex=495 nm).
Spectra were acquired in 50 mM PIPES (pH 7) with 100 mM KCl. For this titration, a single excitation wavelength of λex=485 nm was used.
The diacetylated version of ZP1-TPP, designated DA-ZP1-TPP, was readily prepared by reacting ZP1-TPP with acetic anhydride overnight at room temperature. Over the course of the reaction, the mixture turned from a dark, salmon-colored solution to a light, nearly colorless liquid, which was purified by HPLC. […] Addition of nanomolar concentrations of zinc ions results in a large increase in both the absorption λabs-Zn=510 nm) and fluorescence (λem-Zn=529 nm, FIG. 20a) spectral bands of DA-ZP1-TPP. These optical changes combine to yield a >140-fold increase in the fluorescence signal (ΦZn=0.75±0.03, FIG. 20). […] Whether the mode of zinc-mediated ester hydrolysis proceeds by internal or external hydroxide attack remains to be determined. […] Addition of a chelator (EDTA) attenuates the fluorescence signal ˜5-fold (Φ=0.15±0.02) in the cuvette (FIG. 22) with a concomitant redshift in the absorption spectrum (λabs=522 nm). Reversibility of the fluorescence signal is an important feature for zinc-responsive probes, because it allows confirmation that the observed increase in fluorescence signal is due to Zn(II) and not the result of an artifact. […]
Using DA-ZP1-A3 as a model system, we assessed its photophysical and zinc-binding properties (FIG. 26). […]

For series [3], the system named is porcine liver esterase. Nature of the series: Deacetylation by porcine liver esterase (UV-vis absorbance). The settings on record: 1.25 units porcine liver esterase, 37° C., pH 7. In kind it is in vitro ADME. The protocol: FIG. 23 depicts kinetic traces for the deacetylation of DA-ZP1-TPP. The half-life for deacetylation of a 2.75 μM solution of DA-ZP1-TPP, at 37° C. in 50 mM PIPES buffer (pH 7) and 100 mM KCl, was measured in the presence of 125 μM ZnCl2 (+Zn), 250 μM EDTA (−Zn), or 1.25 units of porcine liver esterase (Esterase). The change in absorbance at 520 nm (EDTA and esterase) or 510 nm (ZnCl2) was used to monitor the reaction.
DA-ZP1-TPP has a zinc-induced fluorescence response and is relatively stable to uncatalyzed hydrolysis and esterase activity. […] Other late 3d-block transition metal ions, such as Co(II) and Cu(II), can coordinate to DA-ZP1-TPP but are generally not available in appreciable chelatable quantities within the cell. In addition to monitoring selectivity in the fluorescence response, we used UV-vis spectroscopy to investigate the rate and zinc-specificity of metal-mediated ester hydrolysis. DA-ZP1-TPP deacetylation results in opening of the lactone ring and restoration of conjugation across the xanthene ring. By monitoring the absorbance of the xanthene it system, we could interrogate deacetylation kinetics in a manner that is independent of the fluorescence response. […] To determine whether ester hydrolysis depends on the metal-binding core of DA-ZP1-TPP, we measured the deacetylation kinetics of fluorescein diacetate (DA-FL) under analogous conditions. […]

For series [4] the following is noted: cited from earlier work.

Several values for one entry are separate records, joined by “and”; a condition that tells them apart may be missing. Equal entries are not always repeated.

For `CC(=O)Oc1c(Cl)cc2c(c1CN(Cc1ccccn1)Cc1ccccn1)Oc1c(cc(Cl)c(OC(C)=O)c1CN(Cc1ccccn1)Cc1ccccn1)C21OC(=O)c2ccc(C(=O)NCC[P+](c3ccccc3)(c3ccccc3)c3ccccc3)cc21` [DA-ZP1-TPP], the “increase in fluorescence intensity on ZnPT” value in series [1] (live HeLa, 1 μM probe, 50 μM ZnPT) was ~12.1 fold and ~12 fold. Also, the “period over which signal intensity was stable in cellulo” value in series [1] (live HeLa, 1 μM, no added zinc) stood at 2 h. Moreover, in series [1] (live HeLa, 100 μM TPEN after 50 μM ZnPT), the “attenuation of fluorescence signal by TPEN” value is about 2.4 fold. In addition, the “attenuation of fluorescence signal by EDTA” value in series [2] (chelator (EDTA) added after zinc) is listed as about 5 fold. The “zinc-induced fluorescence response (turn-on)” value in series [2] was over 140 fold. In series [3], this compound gave a t1/2-Esterase of deacetylation of 2.9 h.
On to `O=C(NCC[P+](c1ccccc1)(c1ccccc1)c1ccccc1)c1ccc2c(c1)C1(OC2=O)c2cc(Cl)c(O)c(CN(Cc3ccccn3)Cc3ccccn3)c2Oc2c1cc(Cl)c(O)c2CN(Cc1ccccn1)Cc1ccccn1` [ZP1-TPP], for which the “response to changing intracellular zinc levels” value in series [1] (live HeLa cells) is given as “did not respond significantly to changing intracellular zinc levels”. For the same compound, the “zinc-induced fluorescence response (turn-on)” value in series [2] is about 7 fold. The “pKa of tertiary nitrogen atoms on the DPA units” value in series [4] is reported as 6.96.
